Assay results as given in patent US20260327211A1, “MODULATORS OF A POTASSIUM CHANNEL AND OF TRPV1 CHANNEL AND USES THEREOF” (Bsense Bio Therapeutics Ltd., priority 2023, published 2026).
Entries after “also recorded” stand apart in the source; their conditions may differ. Blank lines part the entries; values can stand above or below the molecule they belong to.

Legend:
hTRPV1 [1] = molecular target: T1, hTRPV1 (Homo sapiens, UniProt Q8NER1); assay: hTRPV1 dual activity electrophysiology, CHO cells co-expressing hKv7.2/3 and hTRPV1; format: cell-based; conditions: 100 nM
T1 construct: CDS of NM_080704.4, inserted into the multiple cloning site of pcDNA3.1(+); host or cells: CHO/hKv7.2/3
T1 sequence (Q8NER1 whole entry): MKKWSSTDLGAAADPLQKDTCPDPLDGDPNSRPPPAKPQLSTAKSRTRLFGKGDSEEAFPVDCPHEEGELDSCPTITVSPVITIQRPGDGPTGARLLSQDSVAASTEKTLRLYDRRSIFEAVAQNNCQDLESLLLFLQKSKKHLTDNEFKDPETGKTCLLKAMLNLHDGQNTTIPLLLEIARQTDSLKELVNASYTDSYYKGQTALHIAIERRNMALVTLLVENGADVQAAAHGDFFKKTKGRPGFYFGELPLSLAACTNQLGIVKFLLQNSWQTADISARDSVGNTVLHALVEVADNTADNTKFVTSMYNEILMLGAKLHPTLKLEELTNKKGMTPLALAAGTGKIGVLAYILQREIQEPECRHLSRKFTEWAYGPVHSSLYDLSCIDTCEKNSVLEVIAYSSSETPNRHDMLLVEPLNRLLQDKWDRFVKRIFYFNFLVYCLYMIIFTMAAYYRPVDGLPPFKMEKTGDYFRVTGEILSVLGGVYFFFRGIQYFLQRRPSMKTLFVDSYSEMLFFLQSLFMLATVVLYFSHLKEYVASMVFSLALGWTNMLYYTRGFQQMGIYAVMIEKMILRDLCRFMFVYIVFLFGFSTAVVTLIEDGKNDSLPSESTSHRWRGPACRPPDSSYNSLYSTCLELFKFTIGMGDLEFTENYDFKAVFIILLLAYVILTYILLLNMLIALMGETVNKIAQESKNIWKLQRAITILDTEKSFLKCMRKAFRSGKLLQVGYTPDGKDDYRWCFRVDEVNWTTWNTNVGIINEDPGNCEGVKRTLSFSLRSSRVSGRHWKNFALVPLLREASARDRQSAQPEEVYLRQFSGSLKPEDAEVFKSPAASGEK

dopamine D2 = molecular target: T2, dopamine D2 (Homo sapiens, UniProt P14416); assay: Functional selectivity panel, dopamine D2; format: biochemical
T2 construct: Eurofins DiscoverX, USA
T2 sequence (P14416 whole entry): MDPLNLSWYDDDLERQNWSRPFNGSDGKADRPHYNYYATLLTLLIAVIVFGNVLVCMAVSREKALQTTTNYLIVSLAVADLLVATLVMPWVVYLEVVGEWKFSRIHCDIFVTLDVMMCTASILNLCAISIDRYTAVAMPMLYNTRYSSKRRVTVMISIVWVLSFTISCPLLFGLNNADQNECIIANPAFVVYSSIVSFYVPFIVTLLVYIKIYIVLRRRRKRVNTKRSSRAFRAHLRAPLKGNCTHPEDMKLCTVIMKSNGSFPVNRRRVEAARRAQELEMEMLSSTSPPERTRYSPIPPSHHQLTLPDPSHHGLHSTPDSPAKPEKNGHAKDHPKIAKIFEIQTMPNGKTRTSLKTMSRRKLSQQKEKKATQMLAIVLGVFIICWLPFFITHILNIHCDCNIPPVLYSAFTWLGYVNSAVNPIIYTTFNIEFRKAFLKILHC
Procedure: (§1) A broad panel of 78 recombinant targets was tested for pharmacologic activity in vitro through a variety of functional assays (Eurofins DiscoverX, USA), as part of the National Institute of Neurological Disorders and Stroke (NINDS) Preclinical Screening Platform for Pain (PSPP) program. The biological targets for the in vitro profiling have been selected based on avoiding opioid receptor stimulation and targets known to be associated with adverse events or targeted by drugs of abuse. […] For each test, a reference compound was evaluated at the target of interest as a positive control.

adrenergic α2A = molecular target: T3, adrenergic α2A (Homo sapiens, UniProt P08913); assay: Functional selectivity panel, adrenergic α2A; format: biochemical
T3 construct: Eurofins DiscoverX, USA
T3 sequence (P08913 whole entry): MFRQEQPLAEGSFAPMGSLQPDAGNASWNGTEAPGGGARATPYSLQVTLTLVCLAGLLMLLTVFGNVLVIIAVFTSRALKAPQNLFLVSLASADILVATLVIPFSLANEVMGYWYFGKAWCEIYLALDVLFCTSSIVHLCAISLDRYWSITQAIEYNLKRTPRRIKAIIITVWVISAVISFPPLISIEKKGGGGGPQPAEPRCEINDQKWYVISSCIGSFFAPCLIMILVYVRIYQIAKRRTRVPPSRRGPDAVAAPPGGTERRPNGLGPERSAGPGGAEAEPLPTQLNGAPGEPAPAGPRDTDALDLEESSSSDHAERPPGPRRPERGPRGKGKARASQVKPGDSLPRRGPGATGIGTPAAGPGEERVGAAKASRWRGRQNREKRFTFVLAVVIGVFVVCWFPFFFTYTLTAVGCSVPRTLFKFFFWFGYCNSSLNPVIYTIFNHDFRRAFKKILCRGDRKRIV
Procedure: as §1

78 recombinant targets = assay: In-vitro selectivity panel, 78 targets; conditions: all 9 modulated targets of 78
Procedure: as §1
In addition, based on efficacious exposures in vivo, the separation from other targets is still greater than 1000-fold, further supporting the specificity of the compound's MOA.

OATP1B1 = OATP1B1 (Homo sapiens, UniProt Q9Y6L6); assay: Transporter substrate, OATP1B1; format: in vitro ADME; conditions: role: substrate
Chain of OATP1B1 (Q9Y6L6 whole entry): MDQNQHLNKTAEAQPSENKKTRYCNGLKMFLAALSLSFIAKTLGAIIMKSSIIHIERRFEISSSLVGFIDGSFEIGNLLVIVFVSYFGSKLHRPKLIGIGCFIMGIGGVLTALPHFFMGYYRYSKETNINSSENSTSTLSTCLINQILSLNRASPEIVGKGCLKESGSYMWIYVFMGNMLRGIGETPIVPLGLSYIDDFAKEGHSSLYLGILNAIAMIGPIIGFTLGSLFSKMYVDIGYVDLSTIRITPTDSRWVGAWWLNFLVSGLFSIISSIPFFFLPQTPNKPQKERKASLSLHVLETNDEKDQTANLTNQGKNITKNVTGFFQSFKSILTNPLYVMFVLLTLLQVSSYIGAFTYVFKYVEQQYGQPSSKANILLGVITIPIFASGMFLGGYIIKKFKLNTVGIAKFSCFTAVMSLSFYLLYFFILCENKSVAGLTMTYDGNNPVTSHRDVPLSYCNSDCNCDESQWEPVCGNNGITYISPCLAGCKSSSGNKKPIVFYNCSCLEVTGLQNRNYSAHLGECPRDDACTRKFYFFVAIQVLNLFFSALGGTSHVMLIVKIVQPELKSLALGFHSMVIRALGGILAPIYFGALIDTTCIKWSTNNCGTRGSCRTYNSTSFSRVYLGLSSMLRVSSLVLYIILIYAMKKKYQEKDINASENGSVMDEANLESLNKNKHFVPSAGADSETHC
Procedure: (§2) Additionally, compound 760 was tested for its capability to act as a transporter substrate for various transporters, and was not found to be a transporter substrate for any of the tested transporters.

[2] = test system: Salmonella typhimurium (TA98, TA100, TA1535, TA1537) and Escherichia coli WP2uvrA (pKM101); assay: Mini-Ames assay; format: cell-based; conditions: 5 strains, with and without S9
Procedure: The Mini-Ames assay was performed according to the regulatory guidelines. In brief, 5 strains were selected for testing: Salmonella typhimurium (TA98, TA100, TA1535, TA1537) and Escherichia coli WP2uvrA (pKM101). A standard six-well culture plate with top agar containing 0.6% (w/v) agar and 0.5% (w/v) sodium chloride was supplemented with 0.5 mM D-biotin and 0.5 mM L-histidine for Salmonella typhimurium strains or 0.5 mM D-biotin and 0.5 mM L-tryptophan for Escherichia coli WP2uvrA (pKM101). […] Average number of revertants for each dose group condition was compared to negative control, and cytotoxicity and precipitates were recorded.

BCRP = assay: Transporter substrate, BCRP; format: in vitro ADME; conditions: role: substrate
Procedure: as §2

Cannabinoid CB1-2 = assay: Functional screening panel, Cannabinoid CB1-2; format: biochemical; conditions: up to 10 micromolar
Procedure: as §1

Nav1.5 = molecular target: T4, Nav1.5 (Homo sapiens, UniProt Q14524); assay: Functional selectivity panel, Nav1.5; format: biochemical; conditions: up to 10 micromolar
T4 construct: Eurofins DiscoverX functional panel cells
Procedure: as §1

hTRPV1 [3] = assay: hTRPV1 dual activity electrophysiology, CHO cells co-expressing hKv7.2/3 and hTRPV1; format: cell-based; conditions: rat DRG and dual CHO
OATP1B3 = OATP1B3 (Homo sapiens, UniProt Q9NPD5); assay: Transporter substrate, OATP1B3; format: in vitro ADME; conditions: role: substrate
Chain of OATP1B3 (Q9NPD5 whole entry): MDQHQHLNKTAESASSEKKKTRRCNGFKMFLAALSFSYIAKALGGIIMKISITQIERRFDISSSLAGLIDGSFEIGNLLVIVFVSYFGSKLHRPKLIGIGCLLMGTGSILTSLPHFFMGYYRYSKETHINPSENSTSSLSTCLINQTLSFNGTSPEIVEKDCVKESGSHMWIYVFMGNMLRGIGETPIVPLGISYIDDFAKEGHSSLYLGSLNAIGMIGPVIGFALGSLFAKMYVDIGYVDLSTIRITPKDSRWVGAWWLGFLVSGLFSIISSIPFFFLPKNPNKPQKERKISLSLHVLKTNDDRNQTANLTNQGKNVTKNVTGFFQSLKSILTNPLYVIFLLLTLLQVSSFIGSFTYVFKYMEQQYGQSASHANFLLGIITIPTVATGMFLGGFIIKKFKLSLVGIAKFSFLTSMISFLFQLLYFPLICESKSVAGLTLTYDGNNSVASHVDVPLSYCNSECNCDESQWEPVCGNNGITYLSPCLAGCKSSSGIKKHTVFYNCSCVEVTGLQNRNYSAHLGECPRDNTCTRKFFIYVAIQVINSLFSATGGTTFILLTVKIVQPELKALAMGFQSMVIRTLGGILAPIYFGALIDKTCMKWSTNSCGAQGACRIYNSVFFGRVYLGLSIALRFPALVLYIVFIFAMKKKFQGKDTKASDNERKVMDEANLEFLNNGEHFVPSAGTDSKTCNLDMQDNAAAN
Procedure: as §2

OAT3 = OAT3 (Homo sapiens, UniProt Q8TCC7); assay: Transporter substrate, OAT3; format: in vitro ADME; conditions: role: substrate
Chain of OAT3 (Q8TCC7 whole entry): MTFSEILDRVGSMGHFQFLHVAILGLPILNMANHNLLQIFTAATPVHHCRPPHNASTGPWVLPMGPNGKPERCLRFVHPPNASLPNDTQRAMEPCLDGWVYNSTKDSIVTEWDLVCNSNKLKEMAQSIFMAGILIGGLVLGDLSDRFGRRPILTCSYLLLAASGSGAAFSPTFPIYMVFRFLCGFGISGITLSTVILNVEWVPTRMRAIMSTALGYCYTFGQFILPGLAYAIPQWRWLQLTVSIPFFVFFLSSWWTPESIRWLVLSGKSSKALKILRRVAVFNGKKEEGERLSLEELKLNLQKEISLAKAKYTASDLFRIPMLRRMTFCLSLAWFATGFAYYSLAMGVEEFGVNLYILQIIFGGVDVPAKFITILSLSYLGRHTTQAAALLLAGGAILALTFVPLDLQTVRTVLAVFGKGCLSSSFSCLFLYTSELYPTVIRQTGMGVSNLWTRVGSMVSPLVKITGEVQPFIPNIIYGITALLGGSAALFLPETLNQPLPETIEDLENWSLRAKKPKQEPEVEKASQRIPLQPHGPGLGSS
Procedure: as §2

5-HT1A = 5-HT1A (Homo sapiens, UniProt P08908); assay: Functional screening panel, 5-HT1A; format: biochemical; conditions: antagonist; read-out: IC/EC50 5-HT1A-antagonist
Chain of 5-HT1A (P08908 whole entry, species assumed): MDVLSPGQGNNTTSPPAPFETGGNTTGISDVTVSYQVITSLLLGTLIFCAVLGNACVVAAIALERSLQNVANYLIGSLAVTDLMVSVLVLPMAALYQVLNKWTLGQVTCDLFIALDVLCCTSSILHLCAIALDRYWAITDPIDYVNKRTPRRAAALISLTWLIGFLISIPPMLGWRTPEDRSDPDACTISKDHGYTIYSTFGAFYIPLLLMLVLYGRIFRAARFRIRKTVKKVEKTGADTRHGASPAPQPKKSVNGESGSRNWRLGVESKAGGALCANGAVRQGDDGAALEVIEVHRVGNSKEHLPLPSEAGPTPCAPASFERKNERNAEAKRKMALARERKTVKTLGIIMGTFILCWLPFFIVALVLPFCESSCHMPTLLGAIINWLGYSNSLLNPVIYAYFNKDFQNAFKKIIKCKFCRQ
Procedure: as §1

Compound: O=C(Cc1cc(-n2cc(Cl)c3cc(Cl)cc(Cl)c32)ccc1F)NCCO [Compound 627]
hTRPV1 inhibition without hKv7.2/3 activation (hTRPV1 [1]): lack of hTRPV1 inhibition-potency gain; also recorded: TRPV1 could not be inhibited even at 100 nM

IC50 (dopamine D2): 10 µM | IC50 (adrenergic α2A): 6 µM | IC50 (78 recombinant targets): > 1.4 µM
Compound: O=C(Cc1cncc(-n2cc(Cl)c3cc(Cl)cc(Cl)c32)c1)N[C@@H]1COC[C@H]1O [Compound 661]

Compound: O=C(Cc1nccc(-n2cc(Cl)c3cc(Cl)cc(Cl)c32)n1)NC1COCC1O (centres unmarked) [Compound 760]
OATP1B1 substrate (OATP1B1): not a transporter substrate | Cytotoxic effect in Ames strains [2]: No significant cytotoxic effect | Reversion rates [2]: did not induce substantial dose-dependent increases in reversion rates | BCRP substrate (BCRP): not a transporter substrate or a poor substrate | Effect on Cannabinoid CB1-2 (Cannabinoid CB1-2): no effect | Effect on Nav1.5 (Nav1.5): no effect | IC50 (hTRPV1 [3]): 0.0001 to 0.00023 µM | OATP1B3 substrate (OATP1B3): not a transporter substrate | OAT3 substrate (OAT3): not a transporter substrate | IC50 (5-HT1A): 30.4 µM
